Source: patent US20190175671A1, “MICRORNA 22 REGULATORS COMPOSITIONS AND METHODS AND USES THEREOF” (priority 2017, published 2019)

Tests used:
[1] = tested on: Interferon Regulatory Factor 9; details: cited from earlier work
MIR22HG = experiment: Expression of long non-coding RNA MIR22HG
microRNA 22 = details: pancreatic cancer cells; cited from earlier work

Compound: CC(=O)Nc1ccc(O)cc1 [Acetaminophen]
- effect on IRF9 [1]: inhibitor

Compound: CC(NCCC(c1ccccc1)c1ccccc1)c1ccccc1 (stereo not drawn) [Fendiline]
- expression of lncRNA MIR22HG (MIR22HG): upregulates

Compound: COc1cc(/C=C/C(=O)CC(=O)/C=C/c2ccc(O)c(OC)c2)ccc1O [curcumin, diferuloylmethane]
- expression of microRNA 22 (microRNA 22): upregulation
